In US4400199A, “Thiolcarbamate compounds and their use as herbicides” (priority 1981, dated 1983):

system: barnyard grass (Echinochloa crus-galli); assay: Experiment 1: herbicidal effects against barnyard grass (pot test, emulsifiable concentrate); assay type: in vivo; settings: 3 leaf-stage of barnyard grass; 300 g/10a.; 25 days

Question: CSC(=O)N1CC(C)CCC(C)C1 (stereo not shown) [Compound 14, reference compound] was tested. Which “herbicidal activity (barnyard grass)” value did it give?
Answer: Its value is 3 (50 to 69%).

Question: With CCSC(=O)N1CC(C)CCC(C)C1 (stereo not shown) [Compound 15, reference compound] as the compound, how does the “herbicidal activity (barnyard grass)” value read?
Answer: Its value is 3 (50 to 69%).

Question: For CCCSC(=O)N1CC(C)CCC(C)C1 (stereo not shown) [Compound 16, reference compound], which “herbicidal activity (barnyard grass)” value is on record?
Answer: The value was 3 (50 to 69%).

Question: How did the “herbicidal activity (barnyard grass)” value turn out when CCCCSC(=O)N1CC(C)CCC(C)C1 (stereo not shown) [Compound 17, reference compound] was run?
Answer: Its value is 3 (50 to 69%).

Question: CCCCCCCCCCSC(=O)N1CC(C)CCC(C)C1 (stereo not shown) [Compound 19, reference compound] was tested. Which “herbicidal activity (barnyard grass)” value did it give?
Answer: The value was 1 (10 to 29%).

system: barnyard grass; assay: Experiment 2: herbicidal effects against barnyard grass (pot test, granules); assay type: in vivo, Echinochloa crus-galli; settings: 150 g/10a., 2.5 leaf-stage, 25 days

Question: CC1CCC(C)CN(C(=O)SCCCCCCCl)C1 (stereo not drawn) [Compound, S-(6-chlorohexyl)-3,6-dimethyl-hexahydro-1H-azepine-1-carbothioate] was tested. Which “herbicidal activity (barnyard grass)” value did it give?
Answer: Its value is 5 (more than 90%).

same assay, conditions: 300 g/10a., 2.5 leaf-stage, 25 days

Question: For CC1CCC(C)CN(C(=O)SCCCCCCCl)C1 (stereo not drawn) [Compound, S-(6-chlorohexyl)-3,6-dimethyl-hexahydro-1H-azepine-1-carbothioate], which “herbicidal activity (barnyard grass)” value is on record?
Answer: Its value is 5 (more than 90%).

system: broad-leaf weeds; assay: Experiment 2: herbicidal effects against broad-leaf weeds (pot test, granules); assay type: in vivo; settings: 150 g/10a., 25 days

Question: For CC1CCC(C)CN(C(=O)SCCCCCCCl)C1 (stereo not drawn) [Compound, S-(6-chlorohexyl)-3,6-dimethyl-hexahydro-1H-azepine-1-carbothioate], which “Herbicidal activity broad-leaf weeds” value is on record?
Answer: The value was 3 (50 to 69%).

same assay, conditions: 300 g/10a., 25 days

Question: How did the “Herbicidal activity broad-leaf weeds” value turn out when CC1CCC(C)CN(C(=O)SCCCCCCCl)C1 (stereo not drawn) [Compound, S-(6-chlorohexyl)-3,6-dimethyl-hexahydro-1H-azepine-1-carbothioate] was run?
Answer: The value was 5 (more than 90%).

system: Hotarui (Scirpus juncoides); assay: Experiment 2: herbicidal effects against Hotarui (pot test, granules); assay type: in vivo; settings: 150 g/10a., 25 days

Question: Which “Herbicidal activity Hotarui (Scirpus juncoides)” value does the source give for CC1CCC(C)CN(C(=O)SCCCCCCCl)C1 (stereo not drawn) [Compound, S-(6-chlorohexyl)-3,6-dimethyl-hexahydro-1H-azepine-1-carbothioate] here?
Answer: Its value is 3 (50 to 69%).

same assay, conditions: 300 g/10a., 25 days

Question: CC1CCC(C)CN(C(=O)SCCCCCCCl)C1 (stereo not drawn) [Compound, S-(6-chlorohexyl)-3,6-dimethyl-hexahydro-1H-azepine-1-carbothioate] was tested. Which “Herbicidal activity Hotarui (Scirpus juncoides)” value did it give?
Answer: The value was 5 (more than 90%).

system: Mizugayatsuri (Cyperus serotinus); assay: Experiment 2: herbicidal effects against Mizugayatsuri (pot test, granules); assay type: in vivo; settings: 150 g/10a., 25 days

Question: CC1CCC(C)CN(C(=O)SCCCCCCCl)C1 (stereo not drawn) [Compound, S-(6-chlorohexyl)-3,6-dimethyl-hexahydro-1H-azepine-1-carbothioate] was tested. Which “Herbicidal activity Mizugayatsuri (Cyperus serotinus)” value did it give?
Answer: The value was 2 (30 to 49%).

same assay, conditions: 300 g/10a., 25 days

Question: With CC1CCC(C)CN(C(=O)SCCCCCCCl)C1 (stereo not drawn) [Compound, S-(6-chlorohexyl)-3,6-dimethyl-hexahydro-1H-azepine-1-carbothioate] as the compound, how does the “Herbicidal activity Mizugayatsuri (Cyperus serotinus)” value read?
Answer: Its value is 4 (70 to 89%).
